The nature of data set [1]: Permeability from basolateral to apical side in human Caco2 cells at 5 uM after 90 mins. The data set is classed as ADME, cell-based. To be noted: Caco-2, read-out: permeability. Background: Caco-2 cells form a polarised layer with tight junctions and transporters.
The nature of data set [2]: Kinetic solubility of the compound in phosphate buffer at pH 7.4 at 0.0098 to 10 mM by turbidometric method. It counts as physicochemical. To be noted: read-out: Kinetic_solubility.
A further data set relates to HepG2. The data set can be described thus: Cytotoxicity against human HepG2 cells assessed as reduction in cell viability after 24 hrs by MTT assay. The data set is classed as cell-based. Particulars: HepG2, 24 h. Background: Formazan colour is commonly taken as a measure of viable cells.
Data set [3] is described as follows: Metabolic stability in human liver microsomes assessed as parent compound remaining at 1 uM preincubated for 5 mins followed by NADPH addition measured after 30 mins by LC-MS/MS analysis. It counts as ADME, microsome. To be noted: read-out: Stability. On the technique in general: Liver microsomes are vesicles of endoplasmic reticulum, rich in cytochrome P450 enzymes.

The nature of data set [4]: Permeability from apical to basolateral side in human Caco2 cells at 5 uM after 90 mins. The data set is classed as ADME, cell-based. To be noted: Caco-2, read-out: permeability.
Data set [5] addresses Proteinase-activated receptor 2 (Homo sapiens) (UniProt P55085). As to the kind of experiment: Antagonist activity at PAR2 in human HEK293 cells assessed as inhibition of trypsin-induced intracellular calcium flux at 30 uM pretreated for 15 mins followed by trypsin addition by Fluo-8 dye based fluorescence assay relative to control. It counts as functional, cell-based.
Data set [6] shares this target. The data set can be described thus: Antagonist activity at PAR2 in human HEK293 cells assessed as trypsin-induced intracellular calcium flux at 1 uM pretreated for 15 mins followed by trypsin addition by Fluo-8 dye based fluorescence assay relative to control. It counts as functional, cell-based. More on the design: scale not given: the % may be the effect or the level left.

The target is the same in data set [7]. As to the kind of experiment: Antagonist activity at PAR2 in human HEK293 cells assessed as trypsin-induced intracellular calcium flux at 10 uM pretreated for 15 mins followed by trypsin addition by Fluo-8 dye based fluorescence assay relative to control. The data set is classed as functional, cell-based. More on the design: scale not given: the % may be the effect or the level left.

The target is the same in data set [8]. The data set can be described thus: Antagonist activity at PAR2 in human HEK293 cells assessed as trypsin-induced intracellular calcium flux at 3 uM pretreated for 15 mins followed by trypsin addition by Fluo-8 dye based fluorescence assay relative to control. It counts as functional, cell-based. More on the design: scale not given: the % may be the effect or the level left.

For data set [9] the target is unchanged. The data set can be described thus: Antagonist activity at PAR2 in human HEK293 cells assessed as inhibition of trypsin-induced intracellular calcium flux at 10 uM pretreated for 15 mins followed by trypsin addition by Fluo-8 dye based fluorescence assay relative to control. The data set is classed as functional, cell-based.
Data set [10] has as its target Amyloid-beta precursor protein (Homo sapiens, UniProt P05067). The data set can be described thus: Displacement of [125I]IMPY from fibrillar amyloid beta 42 (unknown origin) after 3 hrs.
Data set [11] has as its target T1, Proteinase-activated receptor 2 (Homo sapiens, UniProt P55085).
T1 sequence (P55085 whole entry): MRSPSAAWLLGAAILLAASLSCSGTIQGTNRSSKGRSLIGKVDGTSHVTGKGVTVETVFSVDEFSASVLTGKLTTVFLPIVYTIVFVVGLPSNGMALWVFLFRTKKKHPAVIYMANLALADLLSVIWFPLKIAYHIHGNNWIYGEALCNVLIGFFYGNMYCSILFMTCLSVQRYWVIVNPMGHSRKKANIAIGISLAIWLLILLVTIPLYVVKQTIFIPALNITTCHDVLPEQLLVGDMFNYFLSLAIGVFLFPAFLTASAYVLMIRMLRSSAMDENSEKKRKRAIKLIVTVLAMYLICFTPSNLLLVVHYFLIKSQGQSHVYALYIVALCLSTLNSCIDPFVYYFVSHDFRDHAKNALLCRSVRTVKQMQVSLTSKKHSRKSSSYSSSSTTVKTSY
The data set can be described thus: Antagonist activity at PAR2 in human 1321N1 cells assessed as inhibition of trypsin-induced intracellular calcium flux pretreated for 60 mins followed by trypsin addition by Fluo-8 NW dye based FLIPR assay. It counts as functional, cell-based.

The target of data set [12] is Proteinase-activated receptor 2 (Homo sapiens) (UniProt P55085). The data set can be described thus: Antagonist activity at PAR2 in human HEK293 cells assessed as trypsin-induced intracellular calcium flux at 0.3 uM pretreated for 15 mins followed by trypsin addition by Fluo-8 dye based fluorescence assay relative to control. More on the design: scale not given: the % may be the effect or the level left. The data set is classed as functional, cell-based.

For data set [13] the target is unchanged. As to the kind of experiment: Antagonist activity at PAR2 in human HEK293 cells assessed as trypsin-induced intracellular calcium flux at 0.01 uM pretreated for 15 mins followed by trypsin addition by Fluo-8 dye based fluorescence assay relative to control. The data set is classed as functional, cell-based. More on the design: scale not given: the % may be the effect or the level left.

In data set [14] the target is T1, Proteinase-activated receptor 2. The data set can be described thus: Antagonist activity at PAR2 in human HEK293 cells assessed as inhibition of trypsin-induced intracellular calcium flux pretreated for 15 mins followed by trypsin addition by Fluo-8 dye based fluorescence assay. It counts as functional, cell-based.
The target in data set [15] is Proteinase-activated receptor 2 (Homo sapiens) (UniProt P55085). As to the kind of experiment: Antagonist activity at PAR2 in human HEK293 cells assessed as trypsin-induced intracellular calcium flux at 100 uM pretreated for 15 mins followed by trypsin addition by Fluo-8 dye based fluorescence assay relative to control. The data set is classed as functional, cell-based. More on the design: scale not given: the % may be the effect or the level left.

For data set [16] the target is unchanged. The data set can be described thus: Antagonist activity at PAR2 in human HEK293 cells assessed as trypsin-induced intracellular calcium flux at 0.1 uM pretreated for 15 mins followed by trypsin addition by Fluo-8 dye based fluorescence assay relative to control. It counts as functional, cell-based. More on the design: scale not given: the % may be the effect or the level left.

What is called pIC50 is the negative decadic logarithm of the IC50, by convention in mol/L. The inhibition is the drop in the measured response relative to a control, in per cent.

pIC50: −log10 of the molar value. Values after ≈ are worked out from the molar mass of the structure shown. Some results are limits rather than exact numbers.

Amyloid-beta precursor protein, sequence (P05067 whole entry): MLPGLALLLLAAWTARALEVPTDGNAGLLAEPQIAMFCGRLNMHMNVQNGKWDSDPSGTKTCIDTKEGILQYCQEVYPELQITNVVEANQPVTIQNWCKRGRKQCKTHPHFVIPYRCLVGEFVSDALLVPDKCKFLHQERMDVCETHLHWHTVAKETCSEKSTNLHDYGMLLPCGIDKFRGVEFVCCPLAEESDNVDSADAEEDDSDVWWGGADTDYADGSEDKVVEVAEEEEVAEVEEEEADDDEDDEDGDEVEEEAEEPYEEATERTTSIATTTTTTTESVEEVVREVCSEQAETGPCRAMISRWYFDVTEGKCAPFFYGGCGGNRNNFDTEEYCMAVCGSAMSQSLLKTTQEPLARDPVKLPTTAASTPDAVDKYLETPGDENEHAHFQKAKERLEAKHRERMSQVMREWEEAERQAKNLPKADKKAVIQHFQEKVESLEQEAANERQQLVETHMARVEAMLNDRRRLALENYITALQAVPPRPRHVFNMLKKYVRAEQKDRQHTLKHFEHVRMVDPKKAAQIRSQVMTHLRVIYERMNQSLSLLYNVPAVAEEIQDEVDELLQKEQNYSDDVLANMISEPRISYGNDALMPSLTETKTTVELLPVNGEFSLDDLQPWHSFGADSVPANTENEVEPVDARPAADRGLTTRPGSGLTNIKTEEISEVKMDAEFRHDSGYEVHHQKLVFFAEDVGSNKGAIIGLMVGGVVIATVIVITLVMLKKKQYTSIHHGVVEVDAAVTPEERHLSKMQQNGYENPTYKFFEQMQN

Regarding `COc1cc(/C=C/C(=O)CC(=O)/C=C/c2ccc(O)c(OC)c2)ccc1O` [CURCUMIN], the Papp B→A at 1.5 h, 5 µM in data set [1] is less than 0.5 ×10⁻⁶ cm/s. In addition, the solubility kinetic in data set [2] amounted to 3 µM (≈ 1.11 µg/mL). Also, the pIC50 in the data set on HepG2 was 5.00. Also, the remaining at 0.5 h, 1 µM in data set [3] was determined as 21%. The Papp A→B at 1.5 h, 5 µM in data set [4] was less than 0.5 ×10⁻⁶ cm/s.

For `O[C@@H](CCc1ccc(F)cc1)C[C@@H](O)c1cc(-c2ccccc2)on1`, the inhibition in data set [5] was 70%. For the same compound, the Papp B→A at 1.5 h, 5 µM in data set [1] is 5 ×10⁻⁶ cm/s. Besides, the solubility kinetic in data set [2] is 25 µM (≈ 8.53 µg/mL). Besides, the pIC50 in the data set on HepG2 was less than 4.00. Further, the Activity in [6] is 100%; in data set [7], 65 to 70%; in data set [8] it was 100%. For the same compound, in data set [3], the remaining at 0.5 h, 1 µM is 73%. Moreover, the Papp A→B at 1.5 h, 5 µM in data set [4] stood at 6.3 ×10⁻⁶ cm/s.

Regarding `COc1ccc(CC[C@H](O)C[C@H](O)c2cc(-c3ccccc3)on2)cc1`, the solubility kinetic in [2] turned out to be 25 µM (≈ 8.84 µg/mL). Also, the pIC50 in the data set with HepG2 is less than 4.00. The remaining at 0.5 h, 1 µM in [3] is 33%.

As for `CC[C@H](C)[C@H](NC(=O)[C@H](CC1CCCCC1)NC(=O)c1ccno1)C(=O)N1CCC2(CCc3ccccc32)CC1`, the inhibition in data set [9] turned out to be 42%.

The compound `COc1cc(/C=C/c2cc(/C=C/c3ccc(O)c(OC)c3)on2)ccc1O` showed a pIC50 in data set [10] of 6.86.

For `C[C@@H](C1CCCCC1)n1c(-c2cc3c(cc2Br)OCO3)nc2cc(C(=O)Nc3ccc(C#N)cc3)ccc21`, the pIC50 in [11] was 5.18.

With `COc1cccc(CC[C@H](O)C[C@@H](O)c2cc(-c3ccccc3)on2)c1`, the solubility kinetic in data set [2] is 25 µM (≈ 8.84 µg/mL). In the data set with HepG2, the pIC50 was less than 4.00. Besides, in data set [3], the remaining at 0.5 h, 1 µM is less than 20%.

In the case of `O[C@@H](CCc1ccc(F)cc1)C[C@H](O)c1cc(-c2ccccc2)on1`, the inhibition in [5] stood at 80%. Moreover, the Papp B→A at 1.5 h, 5 µM in [1] came to 5.8 ×10⁻⁶ cm/s. Besides, the Activity fell in the range of 80 to 85% in data set [12]; 95 to 100% in data set [13]; 74 to 78% in [6]; 15 to 20% in [15]; 43 to 48% in [7]; 60 to 65% in data set [8]. Besides, in [16], the Activity lay in the range of 90 to 95%. The solubility kinetic in data set [2] was determined as 25 µM (≈ 8.53 µg/mL). Moreover, the pIC50 with HepG2 is less than 4.00; in data set [14], 5.22. Further, the remaining at 0.5 h, 1 µM in data set [3] came out at 84%. In addition, in data set [4], the Papp A→B at 1.5 h, 5 µM was determined as 7.4 ×10⁻⁶ cm/s.

Consider `COc1ccc(CC[C@H](O)C[C@@H](O)c2cc(-c3ccccc3)on2)cc1`, for which, in data set [2], the solubility kinetic was determined as 25 µM (≈ 8.84 µg/mL). The pIC50 in the data set with HepG2 is less than 4.00. Besides, the remaining at 0.5 h, 1 µM in data set [3] was determined as 32%.

With `COc1ccc(-c2cc([C@@H](O)C[C@@H](O)CCc3ccc(Cl)cc3)no2)cc1`, the solubility kinetic in [2] amounted to 12 µM (≈ 4.65 µg/mL). Moreover, in the data set on HepG2, the pIC50 was less than 4.00. In addition, in data set [3], the remaining at 0.5 h, 1 µM is less than 20%.

In the case of `COc1ccc(CC[C@H](O)C[C@H](O)c2cc(-c3ccc(OC)cc3)on2)cc1`, in data set [2], the solubility kinetic is 12 µM (≈ 4.6 µg/mL). Moreover, the pIC50 in the data set with HepG2 is less than 4.00. Moreover, in data set [3], the remaining at 0.5 h, 1 µM is less than 20%.

Turning to `CCCc1cc(F)ccc1[C@H](O)c1ncc[nH]1`, in [11], the pIC50 is 5.38.

For the origin of these results see ChEMBL document CHEMBL4118211, “Isoxazole-tethered diarylheptanoid analogs: Discovery of a new drug-like PAR2 antagonist” (Bioorg Med Chem Lett, 2018).
